{"source": "patent US20220112187A1", "about": "“PYRAZOLOPYRIDINE AMINE COMPOUNDS FOR THE TREATMENT OF AUTOIMMUNE DISEASE” (Hoffmann-La Roche Inc., priority 2018, published 2022)", "biological_target": "T1, human TLR7 (Homo sapiens, UniProt Q9NYK1)", "T1 sequence (Q9NYK1 27-1049)": "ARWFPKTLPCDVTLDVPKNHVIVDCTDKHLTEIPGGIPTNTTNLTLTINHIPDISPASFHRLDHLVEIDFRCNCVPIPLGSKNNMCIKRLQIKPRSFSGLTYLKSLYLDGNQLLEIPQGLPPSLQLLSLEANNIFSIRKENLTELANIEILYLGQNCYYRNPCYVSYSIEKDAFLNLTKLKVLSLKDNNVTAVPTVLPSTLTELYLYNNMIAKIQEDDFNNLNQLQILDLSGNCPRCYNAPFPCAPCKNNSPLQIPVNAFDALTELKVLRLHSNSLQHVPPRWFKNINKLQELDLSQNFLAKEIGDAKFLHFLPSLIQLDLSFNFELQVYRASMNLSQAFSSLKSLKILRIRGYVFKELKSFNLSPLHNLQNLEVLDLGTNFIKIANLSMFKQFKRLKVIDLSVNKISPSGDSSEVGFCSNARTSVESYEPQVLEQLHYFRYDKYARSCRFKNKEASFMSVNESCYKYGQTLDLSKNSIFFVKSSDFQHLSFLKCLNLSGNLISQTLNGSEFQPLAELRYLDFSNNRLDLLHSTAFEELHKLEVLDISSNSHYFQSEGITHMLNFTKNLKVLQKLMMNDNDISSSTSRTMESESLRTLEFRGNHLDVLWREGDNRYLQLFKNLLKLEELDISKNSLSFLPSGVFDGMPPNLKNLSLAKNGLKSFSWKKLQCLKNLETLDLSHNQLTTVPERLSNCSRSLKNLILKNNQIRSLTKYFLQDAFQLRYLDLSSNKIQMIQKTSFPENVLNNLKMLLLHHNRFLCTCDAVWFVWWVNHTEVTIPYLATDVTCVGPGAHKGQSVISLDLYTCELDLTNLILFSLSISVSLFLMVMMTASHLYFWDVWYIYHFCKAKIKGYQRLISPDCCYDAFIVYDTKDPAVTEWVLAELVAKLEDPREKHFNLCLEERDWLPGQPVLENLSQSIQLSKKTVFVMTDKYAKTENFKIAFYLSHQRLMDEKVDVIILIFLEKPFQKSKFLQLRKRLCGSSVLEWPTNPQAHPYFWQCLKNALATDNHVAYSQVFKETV", "experiment": "HEK293-Blue-hTLR-7 cells assay (SEAP reporter, R848 stimulation)", "type": "cell-based", "details": "HEK293-Blue-hTLR7 cells, R848 ligand, 20 hrs incubation", "method_in_brief": "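Antagonist mode: HEK293-Blue-hTLR7 cells (250,000–450,000 cells/mL) incubated 20 h at 37° C. with serially diluted compound (1% DMSO) and R848 (20 uM stock). NF-κB/AP-1-driven SEAP in supernatant read with QUANTI-Blue after 2 h at 37° C., absorbance 620–655 nm.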"}
{"smiles": "C[C@@H]1CN(c2ccc(C#N)n3nccc23)C[C@H](CN2CCN(C3CCNCC3)CC2Cc2ccccc2)O1", "note": "(stereo partly drawn) [Example 77, 4-[(2S,6R)-2-[[2-benzyl-4-(4-piperidyl)piperazin-1-yl]methyl]-6-methyl-morpholin-4-yl]pyrazolo[1,5-a]pyridine-7-carbonitrile]", "values": [{"measurement": "IC50", "value": 0.16, "unit": "µM"}]}
